Where two headings read alike, the source gives them in different places.
Test: Pharmacokinetics in humans, MRTX1133 formulation, oral, single and multiple doses
Type: in vivo
Conditions: for increase in the mean exposure: dose increased from 200 mg BID to 400 mg BID; for Cmax: read-out: Cmax, Geo Mean; for Tmax: median of subjects (footnote b), read-out: Tmax, Median
Protocol: The pharmacokinetics [PK] of the MRTX1133 formulation after oral administration has been evaluated in 25 subjects across 3 escalating dose frequencies under fasting conditions (200 mg twice daily [BID], 400 mg BID, and 800 mg BID), as well as evaluation of 400 mg BID when administered with a low-fat meal (i.e., under fed conditions). The mean (+standard deviation) single-dose and multiple-dose pharmacokinetic profiles of the evaluated doses are presented in FIG. 9 and FIG. 10, respectively. Individual single- and multiple-dose PK profiles can be found in FIG. 11. For all figures, the X-axis represents nominal time of sample collection (hours [h]) and the Y-axis represents plasma concentration (ng/mL). Table 10 lists PK data following the oral administration of a single dose and multiple doses of MRTX1133 formulation by dose level and subject.

[1] = human, plasma, po, 200 mg, multiple oral doses of 200 mg BID, fasted, mean of subjects, read-out: Plasma concentration, Mean
[2] = human, plasma, po, 200 mg, single oral dose of 200 mg, fasted, mean of subjects, read-out: Plasma concentration, Mean
[3] = human, plasma, po, 400 mg, multiple oral doses of 400 mg BID with a low-fat meal, mean of subjects, read-out: Plasma concentration, Mean
[4] = human, plasma, po, 400 mg, multiple oral doses of 400 mg BID, fasted, mean of subjects, read-out: Plasma concentration, Mean

SMILES: C#Cc1c(F)ccc2cc(O)cc(-c3ncc4c(N5C[C@H]6CC[C@@H](C5)N6)nc(OC[C@@]56CCCN5C[C@H](F)C6)nc4c3F)c12 [MRTX1133, 4-(4-((1R,5S)-3,8-diazabicyclo[3.2.1]octan-3-yl)-8-fluoro-2-(((2R,7aS)-2-fluorohexahydro-1Hpyrrolizin-7a-yl)methoxy)pyrido[4,3-d]pyrimidin-7-yl)-5-ethynyl-6-fluoronaphthalen-2-ol]
- increase in the mean exposure (fasted, multiple doses): ~4.4 fold
- increase in the mean exposure (fasted, single dose): approximately 1.8 fold
- change of mean single- and multiple-dose exposure (dose increased from 400 mg BID to 800 mg BID, fasted): did not change in a clinically meaningful manner
- concentration at 0 h [1]: 5.33 ng/mL
- concentration at 0.5 h [1]: 28.1 ng/mL
- concentration at 1 h [1]: 31.1 ng/mL
- concentration at 1.5 h [1]: 33.1 ng/mL
- concentration at 2 h [1]: 20.1 ng/mL
- concentration at 4 h [1]: 6.62 ng/mL
- concentration at 6 h [1]: 3.85 ng/mL
- concentration at 8 h [1]: 2.79 ng/mL
- concentration at 12 h [1]: 2.46 ng/mL
- concentration at 24 h (human, plasma, po, 200 mg, multiple oral doses of 200 mg BID, fasted, individual subjects, sample taken after PM dose, read-out: Plasma concentration): 0.73 ng/mL
- AUC(0-t) (human, plasma, po, 200 mg, multiple oral doses of 200 mg BID, fasted, geometric mean of subjects, read-out: AUC0-12, Geo Mean): 93.1 ng·h/mL
- AUC(0-t) (human, plasma, po, 200 mg, multiple oral doses of 200 mg BID, fasted, geometric mean of subjects, read-out: AUC0-last, Geo Mean): 75.2 ng·h/mL
- Cmax (human, plasma, po, 200 mg, multiple oral doses of 200 mg BID, fasted, geometric mean of subjects): 36 ng/mL
- Tmax (human, plasma, po, 200 mg, multiple oral doses of 200 mg BID, fasted): 1.5 h
- concentration at 0.5 h [2]: 11.1 ng/mL
- concentration at 1 h [2]: 44.3 ng/mL
- concentration at 1.5 h [2]: 39 ng/mL
- concentration at 2 h [2]: 39.3 ng/mL
- concentration at 4 h [2]: 30.4 ng/mL
- concentration at 6 h [2]: 11.9 ng/mL
- concentration at 8 h [2]: 6.58 ng/mL
- concentration at 12 h [2]: 4.44 ng/mL
- concentration at 24 h [2]: 0.521 ng/mL
- AUC(0-t) (human, plasma, po, 200 mg, single oral dose of 200 mg, fasted, geometric mean of subjects, read-out: AUC0-12, Geo Mean): 148 ng·h/mL
- AUC0-inf (human, plasma, po, 200 mg, single oral dose of 200 mg, fasted, geometric mean of subjects, read-out: AUC0-inf, Geo Mean): 165 ng·h/mL
- AUC(0-t) (human, plasma, po, 200 mg, single oral dose of 200 mg, fasted, geometric mean of subjects, read-out: AUC0-last, Geo Mean): 151 ng·h/mL
- Cmax (human, plasma, po, 200 mg, single oral dose of 200 mg, fasted, geometric mean of subjects): 59.8 ng/mL
- Tmax (human, plasma, po, 200 mg, single oral dose of 200 mg, fasted): 1.5 h
- concentration at 0 h [3]: 16.7 ng/mL
- concentration at 1 h [3]: 138 ng/mL
- concentration at 2 h [3]: 66.7 ng/mL
- concentration at 3 h (human, plasma, po, 400 mg, multiple oral doses of 400 mg BID with a low-fat meal, 3 h, mean of subjects): 55.1 ng/mL
- concentration at 4 h [3]: 100 ng/mL
- concentration at 5 h (human, plasma, po, 400 mg, multiple oral doses of 400 mg BID with a low-fat meal, 5 h, mean of subjects): 39.8 ng/mL
- concentration at 6 h [3]: 30 ng/mL
- concentration at 8 h [3]: 23 ng/mL
- concentration at 12 h [3]: 17.3 ng/mL
- AUC(0-t) (human, plasma, po, 400 mg, multiple oral doses of 400 mg BID with a low-fat meal, geometric mean of subjects, read-out: AUC0-12, Geo Mean): 310 ng·h/mL
- AUC(0-t) (human, plasma, po, 400 mg, multiple oral doses of 400 mg BID with a low-fat meal, geometric mean of subjects, read-out: AUC0-last, Geo Mean): 310 ng·h/mL
- Cmax (human, plasma, po, 400 mg, multiple oral doses of 400 mg BID with a low-fat meal, geometric mean of subjects): 102 ng/mL
- Tmax (human, plasma, po, 400 mg, multiple oral doses of 400 mg BID with a low-fat meal): 1 h
- concentration at 0 h [4]: 19.4 ng/mL
- concentration at 0.5 h [4]: 72.7 ng/mL
- concentration at 1 h [4]: 85.9 ng/mL
- concentration at 1.5 h [4]: 64.6 ng/mL
- concentration at 2 h [4]: 48.5 ng/mL
- concentration at 4 h [4]: 77.3 ng/mL
- concentration at 6 h [4]: 63.4 ng/mL
- concentration at 8 h [4]: 40.3 ng/mL
- concentration at 12 h [4]: 27.8 ng/mL
- AUC(0-t) (human, plasma, po, 400 mg, multiple oral doses of 400 mg BID, fasted, geometric mean of subjects, read-out: AUC0-12, Geo Mean): 410 ng·h/mL
- AUC(0-t) (human, plasma, po, 400 mg, multiple oral doses of 400 mg BID, fasted, geometric mean of subjects, read-out: AUC0-last, Geo Mean): 410 ng·h/mL
- Cmax (human, plasma, po, 400 mg, multiple oral doses of 400 mg BID, fasted, geometric mean of subjects): 111 ng/mL
- Tmax (human, plasma, po, 400 mg, multiple oral doses of 400 mg BID, fasted): 1 h
- concentration at 1 h (human, plasma, po, 400 mg, single oral dose of 400 mg with a low-fat meal, mean of subjects, read-out: Plasma concentration, Mean): 46.7 ng/mL

Source: patent US20250120981A1, “MRTX1133 PHARMACEUTICAL COMPOSITIONS” (MIRATI THERAPEUTICS, INC., priority 2023, published 2025)
